# Reference: patent US4610994A, “1,2,3-triazole anticonvulsant drugs” (priority 1984, dated 1986)
# Several values for one entry are separate records, joined by “and”; a condition that tells them apart may be missing. Equal entries are not always repeated. Entries after “also recorded” stand apart in the source; their conditions may differ. Where two headings read alike, the source gives them in different places.
# Experiments:
# [1] = tested on: subcutaneous Bicuculline seizures; experiment: subcutaneous Bicuculline Seizure Threshold Test (sc Bic) in mice; type: in vivo, mice (male albino, CF No. 1); conditions: mice i.p.; Compound 10 up to 300 mg/kg
# Method: (§3) All animals were allowed free access to both food (S/L Custom Lab Diet-7) and water, except when they were removed from their cages for the experimental procedure.
# (§4) The drugs were administered either orally or intraperitoneally in a volume of 0.01 ml/g body weight in mice and 0.04 ml/10 g in rats. All tests were conducted at the previously determined time of peak drug effect.
# (§5) The profile of anticonvulsant activity for each substance was established by five tests: one electrical and four chemical. The electrical test employed was the maximal electroshock seizure pattern test. […] Except for the sc Strych Test, these tests measure the ability of anticonvulsants to afford complete protection against threshold seizures induced by the subcutaneous injection of the CD97 of the convulsant agent.
# (§6) All convulsants were administered subcutaneously into a loose fold of skin on the back of the neck in a volume of 0.01 ml/g body weight in mice; Metrazol was injected in a volume of 0.02 ml/10 g body weight in rats. The convulsant drugs were administered at the previously determined time of peak anticonvulsant action of the drug under study. […] Except for strychnine, absence of a five-second episode of clonic spasms (threshold seizure) was taken as protection. In the case of strychnine, complete abolition of the hindleg tonic extension was taken as protection.
# [2] = tested on: subcutaneous Picrotoxin seizures; experiment: subcutaneous Picrotoxin Seizure Threshold Test (sc Pic) in mice; type: in vivo, mice (male albino, CF No. 1); conditions: mice i.p.; Compound 10 up to 300 mg/kg
# Method: as §3, §4, §5, §6
# [3] = tested on: subcutaneous Strychnine seizures; type: in vivo, mice (male albino, CF No. 1); conditions: for animals protected in the sc Strych test: mice, i.p.
# Method: as §3, §4, §5, §6
# [4] = loss of righting reflex (HD50) in mice i.p.; set-up: species or system mice (male albino, CF No. 1); conditions: for TD50: HD50 (righting reflex)
# Method: (§7) The profile of toxicity for each test drug was established by the following procedures: Firstly, the minimal neurotoxic dose (TD50) was determined by the rotorod procedure at the time of peak neurotoxic effect. When a normal mouse is placed on a knurled rod one inch in diameter rotating at a speed of six rpm it can maintain its equilibrium for long periods of time. Neurological deficit is indicated by inability of the mouse to maintain its equilibrium for one minute in each of three trials on this rotating rod. […] The HD50 represents the median dose at which 50% of animals lose their righting reflex.
# [5] = rats, oral, higher doses; cited from earlier work
# in vivo [6] = conditions: rat, po
# Method: as §3, §4
# (§8) The profile of toxicity for each test drug was established by the following procedures: Firstly, the minimal neurotoxic dose (TD50) was determined by the rotorod procedure at the time of peak neurotoxic effect. When a normal mouse is placed on a knurled rod one inch in diameter rotating at a speed of six rpm it can maintain its equilibrium for long periods of time. Neurological deficit is indicated by inability of the mouse to maintain its equilibrium for one minute in each of three trials on this rotating rod. Neurological deficit in rats is indicated by ataxia, loss of placing response and muscle tone.
# [7] = tested on: subcutaneous Metrazol seizures; experiment: subcutaneous Metrazol Seizure Threshold Test (sc Met) in mice; conditions: for ED97: sc Met
# Method: as §3, §4, §5, §6
# [8] = tested on: subcutaneous Metrazol seizures; experiment: subcutaneous Metrazol Seizure Threshold Test (sc Met) in rats
# Method: as §3, §4, §5, §6
# [9] = Phase III toxicity profile (overt signs and symptoms) in mice i.p.; conditions: for Profile of acute toxicity, 1 x TD50: 1TD50; for Profile of acute toxicity, 2 x TD50: 2TD50; for Profile of acute toxicity, 4 x TD50: 4TD50
# Method: as §7
# [10] = tested on: maximal electro-shock seizure (MES) and subcutaneous pentylenetetrazole (Metrazole) seizure threshold (scMet); experiment: Phase I anticonvulsant screening (MES test and scMet test); type: in vivo, mouse; conditions: at effective dose levels (Class I) or 300 mg/kg (8, 13)
# [11] = five-day oral LD3 in rats; type: in vivo
# Method: (§1) Phase VII studies of Compound 10 included five-day LD3, five-day tolerance studies, and effect of chronic administration on the liver microsomal enzyme system. The five-day oral LD3 of Compound 10 is <300 mg/kg in male rats and >300 mg/kg in female rats.
# (§2) Thus, the estimated five-day LD3 for Compound 10 is <300 mg/kg in male rats and >300 but <1000 mg/kg in female rats.
# [12] = tested on: maximal electroshock seizures; experiment: five-day tolerance study in rats (MES test); type: in vivo
# Method: as §1, §2
# hexobarbital sleep time = hexobarbital sleep time after chronic administration in rats; type: in vivo
# Method: as §1
# cytochrome P-450 = experiment: effect of chronic administration on liver microsomal cytochrome P-450; type: in vivo, rats
# Method: as §1, §2
# [13] = tested on: p-nitroanisole O-demethylase; experiment: effect of chronic administration on liver p-nitroanisole O-demethylase; type: in vivo, rats
# Method: as §1, §2
# cytochrome C reductase = experiment: effect of chronic administration on liver cytochrome C reductase; type: in vivo, rats
# Method: as §1, §2
# [14] = oral absorption in mice from oral/i.p. ratios; type: in vivo
# Text: The extent of oral absorption can be determined from the ratio of the oral ED50/i.p. […] The oral TD50/i.p. TD50 and oral ED50/i.p.
# in vivo [15] = conditions: mouse, po
# Method: as §3, §4, §5
# in vivo [16] = conditions: mouse
# Method: as §3, §4, §5, §6
# in vivo [17] = conditions: mouse; remark: listed apart in the source
# Method: as §3, §4, §8
# in vivo [18] = conditions: mouse, ip
# [19] = 24-hour lethality (LD50) in mice i.p.
# [20] = tested on: maximal electroshock seizures; experiment: maximal electroshock seizure (MES) pattern test in mice; conditions: for ED97 / Safety ratio (TD3/ED97): MES
# Method: as §3, §4, §5
# [21] = maximal electroshock seizure (MES) pattern test in rats; conditions: rat, in vivo, po, Safety ratio (TD3/ED97), rats, MES
# Method: as §3, §4, §5
# [22] = tested on: maximal electroshock seizures; experiment: as above
# Method: as §3, §4, §5
# [23] = minimal neurotoxicity (ataxia, loss of placing response and muscle tone) in rats; conditions: for TD3: oral
# Method: as §3, §4, §8
# [24] = type: in vivo; conditions: mice, subcutaneous
# Text: as §5
# [25] = sc convulsant dose CD97 in rats; type: in vivo; conditions: Rattus norvegicus, subcutaneous
# Text: as §5
# [26] = mice, i.p., 95% confidence interval
# [27] = rats, acute (single dose) control group
# 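For Rotorod TD50 in this document: mice on rotorod: neurological deficit scored when the animal cannot keep balance for 1 min in every one of three trials on a 1-inch knurled rod turning at 6 rpm.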
# 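For Rotorod toxicity in this document: mice on rotorod: neurological deficit scored when the animal cannot keep balance for 1 min in every one of three trials on a 1-inch knurled rod turning at 6 rpm.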
# 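For time of peak effect (TPE), rotorod toxicity test in this document: mice on rotorod: neurological deficit scored when the animal cannot keep balance for 1 min in every one of three trials on a 1-inch knurled rod turning at 6 rpm.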
# 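For time of peak toxicity, rotorod in this document: mice on rotorod: neurological deficit scored when the animal cannot keep balance for 1 min in every one of three trials on a 1-inch knurled rod turning at 6 rpm.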
compound,measurement,setting,value
O=C1NC(=O)C(c2ccccc2)(c2ccccc2)N1 [Phenytoin],effectiveness by the sc Bic test,[1],ineffective
same,effectiveness by the sc Pic test,[2],ineffective
same,animals protected in the sc Strych test,[3],50%
same,HD50 (righting reflex),[4]; [26],178.34(152.93-195.45) mg/kg
same,HD50 (righting reflex),"[4]; mice, i.p., 95% confidence interval, listed as phenytoin",178.34 mg/kg
same,"time of peak toxicity (TPE), righting reflex","[4]; mouse, in vivo, ip",12 h
same,"time of peak toxicity, rotorod","mouse, in vivo, ip",2 h
same,absorption from the gastrointestinal tract,[5],absorbed only to a limited extent
same,TD50,in vivo [6],> 3000 mg/kg
same,effectiveness by the sc Met test,"[7]; mice i.p., listed as phenytoin",did not protect against subcutaneous Metrazol seizures
same,effectiveness by the sc Met test,"[7]; mice, i.p.",ineffective
same,sc Met ED50,[7]; [26],> 300 mg/kg
same,effectiveness by the sc Met test,[8]; p.o.,ineffective
same,"Profile of acute toxicity, 1 x TD50",[9],"activity, slight ataxia, fre-"
same,"Profile of acute toxicity, 2 x TD50",[9],"Mild ataxia,"
"Clc1ccc(-n2nncc2-c2cccnc2)cc1 [Compound 10, 1-(para-chlorophenyl)-5-(3-pyridyl)-1H-1,2,3-triazole]",signs of neurological deficit,[10],do not exhibit significant signs of neurological deficit
same,effectiveness by the sc Bic test,[1],ineffectiveness; also recorded: ineffective in doses up to 300 mg/kg
same,effectiveness by the sc Pic test,[2],ineffectiveness; also recorded: ineffective in doses up to 300 mg/kg
same,effectiveness by the sc Strych test,"[3]; mice i.p., Compound 10 up to 300 mg/kg",ineffectiveness; also recorded: ineffective in doses up to 300 mg/kg
same,HD50 (righting reflex),"[4]; mouse, in vivo, ip",525.98(473.77-564.48) mg/kg
same,"time of peak toxicity (TPE), righting reflex","[4]; mouse, in vivo, ip",6 h
same,TD50,"[4]; mouse, in vivo, ip",526 mg/kg
same,five-day oral LD3,[11]; male rats,< 300 mg/kg
same,five-day oral LD3,"[11]; rat, in vivo, po, 7200 min",> 300 mg/kg
same,"toxicity, male vs female rats","[11]; rats, chronic",more toxic in male than in female rats
same,"MES test, animals protected","[12]; acute (single dose, 50 mg/kg) control group, 50 mg/kg",6 of 8 protected and 6 of 8 rats protected
same,"MES test, animals protected","[12]; chronic-treated group, five daily doses of 50 mg/kg",1 of 8 protected
same,tolerance to the anticonvulsant effects,[12]; five days,significant tolerance occurs within this period of time
same,hexobarbital sleep time,hexobarbital sleep time; acute (single dose) control group,16.3 ± 1.2 min
same,hexobarbital sleep time,hexobarbital sleep time; chronic-treated group,15.0 ± 2.0 min
same,cytochrome P-450,cytochrome P-450; chronically treated rats,0.988±0.096 n moles/mg
same,cytochrome P-450,cytochrome P-450; [27],0.720±0.054 n moles/mg
same,increase in liver cytochrome P-450,"cytochrome P-450; rats, chronic vs acute",37%
same,p-nitroanisole O-demethylase,[13]; chronically treated rats,0.640±0.098 n moles/mg/min
same,p-nitroanisole O-demethylase,[13]; [27],0.261±0.035 n moles/mg/min
same,increase in p-nitroanisole O-demethylase,"[13]; rats, chronic vs acute",145%
same,cytochrome C reductase,cytochrome C reductase; chronically treated rats,219±24 n moles/mg/min
same,cytochrome C reductase,cytochrome C reductase; [27],157±11 n moles/mg/min
same,increase in cytochrome C reductase,"cytochrome C reductase; rats, chronic vs acute",40%
same,oral absorption,[14],adequately absorbed in mice after oral administration
same,toxicity,"300 mg/kg, four hours after administration",one of two animals
same,Rotorod toxicity,"300 mg/kg, thirty minutes after administration",all four animals
same,"time of peak effect (TPE), rotorod toxicity test","mice, i.p.",60 min
same,TD3,"mice, i.p., MES",175
same,TD3,"mice, i.p., sc Met",175
same,Rotorod TD50,[26],244.51(221.82-275.17) mg/kg and 244.51(222.82-275.17) mg/kg
same,TD3,"mice, oral, MES",173
same,TD3,"mice, oral, sc Met",173
same,TPE by the rotorod test,"mice, p.o.",six
same,TD50,"mice, p.o., 95% confidence interval",729.08 (492.47-1009.17) mg/kg
same,selectivity ratio,in vivo [15],5.54
same,selectivity ratio,in vivo [16]; ip,9.07
same,selectivity ratio,in vivo [16]; po,5.37
same,TD50,in vivo [17]; ip,245 mg/kg
same,TD50,in vivo [17]; po,729 mg/kg
same,LD50 at 24 h,in vivo [18],569 mg/kg
same,LD50/HD50 ratio,[19],1.08
same,LD50/TD50 ratio,[19],2.33
same,"oral ED50/i.p. ED50 ratio, MES",[20]; mice,2.00
same,"toxicity of doses giving 97% protection, MES or sc Met test","[20]; mice and rats, oral",toxic doses are required to protect 97% of animals
same,"time of peak effect (TPE), anticonvulsant tests","[20]; mice i.p., anticonvulsant tests (MES, sc Met)",30 min
same,mice protected in the MES test at nontoxic doses,"[20]; mice, i.p.",97%
same,protective index (TD50/ED50) by the MES test,"[20]; mice, i.p.",3.72
same,ED97,"[20]; mice, i.p.",145
same,Safety ratio (TD3/ED97),"[20]; mice, i.p.",1.2
same,MES ED50,[20]; [26],65.76 mg/kg and 65.76(51.82-83.19) mg/kg
same,ED97,"[20]; mice, oral",275
same,Safety ratio (TD3/ED97),"[20]; mice, oral",0.6
same,MES ED50,"[20]; mice, p.o.",131.67 mg/kg
same,"potency relative to phenobarbital, MES test","[20]; mice, p.o.",1/6
same,"potency relative to phenytoin, MES test","[20]; mice, p.o.",1/15
same,selectivity ratio,[21],0.07
same,ED97,"[22]; Rattus norvegicus, po",215 mg/kg
same,ED50,"[22]; Rattus norvegicus, po, read-out: MES ED50",49.9 mg/kg
same,97% protection by the MES and sc Met tests in nontoxic doses,"[22]; rats, oral",do not provide 97% protection
same,TPE by the MES and sc Met tests,"[22]; rats, p.o.",four
same,"oral ED50/i.p. ED50 ratio, sc Met",[7]; mice,5.03
same,"toxicity of doses giving 97% protection, sc Met test","[7]; mice, i.p.",toxic doses are required
same,ED97,"[7]; mice, i.p.",900
same,sc Met ED50,[7]; [26],26.95 mg/kg and 26.95(9.89-55.08) mg/kg
same,ED97,"[7]; mice, oral",980
same,sc Met ED50,"[7]; mice, p.o.",135.67 mg/kg
same,potency by the sc Met test in mice relative to rats,[7]; oral administration,about 21/2
same,ED97,"[8]; oral, sc Met",> 10000
same,Safety ratio (TD3/ED97),"[8]; oral, sc Met",0.002
same,sc Met ED50,[8]; p.o.,329.18 mg/kg
same,"Profile of acute toxicity, 1 x TD50",[9],"decreased motor activity, rotorod toxicity, ataxia, and decreased respiration; also recorded: normal after 24 hours; also recorded: normal at 24 hrs"
same,"Profile of acute toxicity, 2 x TD50",[9],"cyanosis, muscle relaxation, and loss of righting reflex; also recorded: dead after 24 hours"
same,"Profile of acute toxicity, 4 x TD50",[9],"displayed all the symptoms characteristic of those given 1TD50 and 2TD50's of the test drug; however, the symptoms were more intense; also recorded: dead 4 hours after drug administration and the other was dead at 24 hours"
same,neurotoxicity in rats relative to mice,[23]; oral administration,approximately 16 times
same,TD50,"[23]; rat, in vivo, po",44.5 mg/kg
same,TD3,"[23]; rats, MES",16
same,TD3,"[23]; rats, sc Met",16
same,TPE by the toxicity test,"[23]; rats, p.o.",two
same,TD50,"[23]; rats, p.o., 95% confidence interval",44.48 (32.78-62.61) mg/kg
CCC1(C)CC(=O)NC1=O (centres unmarked) [Ethosuximide],effectiveness by the sc Bic test,[1],had to be given in toxic doses to protect against sc Bic seizures
same,effectiveness by the sc Pic test,[2],effective
same,animals protected in the sc Strych test,[3],≤ 62%
same,HD50 (righting reflex),"[4]; mouse, in vivo, ip",850.61(751.19-917.93) mg/kg
same,TD50,"[4]; mouse, in vivo, ip",851 mg/kg
same,Rotorod TD50,[26],440.83(383.09-485.34) mg/kg
same,Rotorod TD50,"mice, i.p., 95% confidence interval, listed as ethosuximide",440.83 mg/kg
same,Rotorod TD50,"mouse, in vivo, ip","44,.83(383.09-485.34) mg/kg"
same,TD50,"mouse, in vivo, po","879,21 mg/kg"
same,TD50,in vivo [17]; po,879 mg/kg
same,LD50 at 24 h,in vivo [18],1750 mg/kg
same,protection from maximal electroshock seizures,"[20]; mice, i.p.",not able to protect mice from maximal electroshock seizures
same,MES ED50,[20]; [26],> 1000 mg/kg
same,effectiveness by the sc Met test,"[7]; mice, i.p.",effective
same,sc Met ED50,[7]; [26],130.35 mg/kg and 130.35(110.99-150.45) mg/kg
same,sc Met ED50,"[7]; mice, p.o.",192.21 mg/kg
same,"Profile of acute toxicity, 1 x TD50",[9],Uncoordinated
same,"Profile of acute toxicity, 2 x TD50",[9],Uncoordinated
same,"Profile of acute toxicity, 4 x TD50",[9],Uncoordinated
C1CCc2nnnn2CC1 [Metrazol],sc CD97,[24],85 mg/kg
same,ED97,[25],70 mg/kg
